Reference: ChEMBL document CHEMBL3044654, “Sensitivity of four isolates of Clonostachys rosea to pesticides used in the strawberry crop in Brazil” (2012)

Legend:
Type in all cases: functional
Clonostachys rosea [1] = assay: Toxicity against Bionectria ochroleuca I61 assessed as inhibition of mycelial growth at 0.003 to 0.020 mg/ml measured every 24 hr intervals over 192 hr
Clonostachys rosea [2] = assay: Toxicity against Bionectria ochroleuca I19 assessed as inhibition of mycelial growth at 0.003 to 0.020 mg/ml measured every 24 hr intervals over 192 hr
Clonostachys rosea [3] = assay: Toxicity against Bionectria ochroleuca assessed as inhibition of mycelial growth at 0.003 to 0.020 ug/ml measured every 24 hr intervals over 192 hr
Clonostachys rosea [4] = assay: Toxicity against Bionectria ochroleuca I62 assessed as inhibition of mycelial growth at 0.003 to 0.020 mg/ml measured every 24 hr intervals over 192 hr
Clonostachys rosea [5] = assay: Toxicity against Bionectria ochroleuca assessed as inhibition of conidial germination at 0.003 to 0.020 ug/ml measured every 24 hr intervals over 192 hr
Clonostachys rosea [6] = assay: Toxicity against Bionectria ochroleuca I60 assessed as inhibition of mycelial growth at 0.003 to 0.020 mg/ml measured every 24 hr intervals over 192 hr
Clonostachys rosea [7] = assay: Toxicity against Bionectria ochroleuca I19 assessed as inhibition of mycelial growth at 0.3 to 1.8 mg/ml measured every 24 hr intervals over 192 hr
Clonostachys rosea [8] = assay: Toxicity against Bionectria ochroleuca assessed as inhibition of conidial germination at 0.3 to 1.8 mg/ml measured every 24 hr intervals over 192 hr
Clonostachys rosea [9] = assay: Toxicity against Bionectria ochroleuca assessed as inhibition of mycelial growth at 0.3 to 1.8 mg/ml measured every 24 hr intervals over 192 hr
Clonostachys rosea [10] = assay: Toxicity against Bionectria ochroleuca I61 assessed as inhibition of mycelial growth at 0.3 to 1.8 mg/ml measured every 24 hr intervals over 192 hr
Clonostachys rosea [11] = assay: Toxicity against Bionectria ochroleuca I60 assessed as inhibition of mycelial growth at 0.3 to 1.8 mg/ml measured every 24 hr intervals over 192 hr
Clonostachys rosea [12] = assay: Toxicity against Bionectria ochroleuca I62 assessed as inhibition of mycelial growth at 0.3 to 1.8 mg/ml measured every 24 hr intervals over 192 hr
Clonostachys rosea [13] = assay: Toxicity against Bionectria ochroleuca I19 assessed as inhibition of conidial germination at 0.048 to 0.292 mg/ml measured every 24 hr intervals over 192 hr
Clonostachys rosea [14] = assay: Toxicity against Bionectria ochroleuca I61 assessed as inhibition of conidial germination at 0.048 to 0.292 mg/ml measured every 24 hr intervals over 192 hr
Clonostachys rosea [15] = assay: Toxicity against Bionectria ochroleuca assessed as inhibition of conidial germination at 0.048 to 0.292 ug/ml measured every 24 hr intervals over 192 hr
Clonostachys rosea [16] = assay: Toxicity against Bionectria ochroleuca I62 assessed as inhibition of mycelial growth at 0.048 to 0.292 mg/ml measured every 24 hr intervals over 192 hr
Clonostachys rosea [17] = assay: Toxicity against Bionectria ochroleuca assessed as inhibition of mycelial growth at 0.048 to 0.292 ug/ml measured every 24 hr intervals over 192 hr
Clonostachys rosea [18] = assay: Toxicity against Bionectria ochroleuca I60 assessed as inhibition of conidial germination at 0.048 to 0.292 mg/ml measured every 24 hr intervals over 192 hr
Clonostachys rosea [19] = assay: Toxicity against Bionectria ochroleuca I62 assessed as inhibition of conidial germination at 0.048 to 0.292 mg/ml measured every 24 hr intervals over 192 hr
Clonostachys rosea [20] = assay: Toxicity against Bionectria ochroleuca I60 assessed as inhibition of mycelial growth at 0.048 to 0.292 mg/ml measured every 24 hr intervals over 192 hr
Clonostachys rosea [21] = assay: Toxicity against Bionectria ochroleuca I61 assessed as inhibition of mycelial growth at 0.048 to 0.292 mg/ml measured every 24 hr intervals over 192 hr
Clonostachys rosea [22] = assay: Toxicity against Bionectria ochroleuca I19 assessed as inhibition of mycelial growth at 0.048 to 0.292 mg/ml measured every 24 hr intervals over 192 hr
Clonostachys rosea [23] = assay: Toxicity against Bionectria ochroleuca assessed as inhibition of conidial germination at 0.001 to 0.009 ug/ml
Clonostachys rosea [24] = assay: Toxicity against Bionectria ochroleuca assessed as inhibition of mycelial growth at 0.001 to 0.009 ug/ml
Clonostachys rosea [25] = assay: Toxicity against Bionectria ochroleuca assessed as inhibition of conidial germination at 0.005 to 0.033 ug/ml
Clonostachys rosea [26] = assay: Toxicity against Bionectria ochroleuca assessed as inhibition of mycelial growth at 0.005 to 0.033 ug/ml
Clonostachys rosea [27] = assay: Toxicity against Bionectria ochroleuca assessed as inhibition of mycelial growth at 0.9 to 1.13 mg/ml measured every 24 hr intervals over 192 hr
Clonostachys rosea [28] = assay: Toxicity against Bionectria ochroleuca assessed as inhibition of conidial germination at 0.9 to 1.13 mg/ml measured every 24 hr intervals over 192 hr
Clonostachys rosea [29] = assay: Toxicity against Bionectria ochroleuca I19 assessed as inhibition of mycelial growth at 0.25 to 1.50 mg/ml measured every 24 hr intervals over 192 hr
Clonostachys rosea [30] = assay: Toxicity against Bionectria ochroleuca I61 assessed as inhibition of conidial germination at 0.25 to 1.50 mg/ml measured every 24 hr intervals over 192 hr
Clonostachys rosea [31] = assay: Toxicity against Bionectria ochroleuca I62 assessed as inhibition of conidial germination at 0.25 to 1.50 mg/ml measured every 24 hr intervals over 192 hr
Clonostachys rosea [32] = assay: Toxicity against Bionectria ochroleuca assessed as inhibition of mycelial growth at 0.25 to 1.50 mg/ml measured every 24 hr intervals over 192 hr
Clonostachys rosea [33] = assay: Toxicity against Bionectria ochroleuca I62 assessed as inhibition of mycelial growth at 0.25 to 1.50 mg/ml measured every 24 hr intervals over 192 hr
Clonostachys rosea [34] = assay: Toxicity against Bionectria ochroleuca assessed as inhibition of conidial germination at 0.25 to 1.50 mg/ml measured every 24 hr intervals over 192 hr
Clonostachys rosea [35] = assay: Toxicity against Bionectria ochroleuca I61 assessed as inhibition of mycelial growth at 0.25 to 1.50 mg/ml measured every 24 hr intervals over 192 hr
Clonostachys rosea [36] = assay: Toxicity against Bionectria ochroleuca I60 assessed as inhibition of mycelial growth at 0.25 to 1.50 mg/ml measured every 24 hr intervals over 192 hr
Clonostachys rosea [37] = assay: Toxicity against Bionectria ochroleuca assessed as inhibition of conidial germination at 0.12 to 0.75 mg/ml measured every 24 hr intervals over 192 hr
Clonostachys rosea [38] = assay: Toxicity against Bionectria ochroleuca assessed as inhibition of mycelial growth at 0.12 to 0.75 mg/ml measured every 24 hr intervals over 192 hr
Clonostachys rosea [39] = assay: Toxicity against Bionectria ochroleuca assessed as inhibition of mycelial growth at 0.011 to 0.066 mg/ml
Clonostachys rosea [40] = assay: Toxicity against Bionectria ochroleuca assessed as inhibition of conidial germination at 0.011 to 0.066 mg/ml
Clonostachys rosea [41] = assay: Toxicity against Bionectria ochroleuca I61 assessed as inhibition of mycelial growth at 0.006 to 0.037 mg/ml measured every 24 hr intervals over 192 hr
Clonostachys rosea [42] = assay: Toxicity against Bionectria ochroleuca I19 assessed as inhibition of mycelial growth at 0.006 to 0.037 mg/ml measured every 24 hr intervals over 192 hr
Clonostachys rosea [43] = assay: Toxicity against Bionectria ochroleuca assessed as inhibition of mycelial growth at 0.006 to 0.037 ug/ml measured every 24 hr intervals over 192 hr
Clonostachys rosea [44] = assay: Toxicity against Bionectria ochroleuca I60 assessed as inhibition of mycelial growth at 0.006 to 0.037 mg/ml measured every 24 hr intervals over 192 hr
Clonostachys rosea [45] = assay: Toxicity against Bionectria ochroleuca I62 assessed as inhibition of mycelial growth at 0.006 to 0.037 mg/ml measured every 24 hr intervals over 192 hr
Clonostachys rosea [46] = assay: Toxicity against Bionectria ochroleuca assessed as inhibition of conidial germination at 0.006 to 0.037 ug/ml measured every 24 hr intervals over 192 hr
Clonostachys rosea [47] = assay: Toxicity against Bionectria ochroleuca I62 assessed as inhibition of conidial germination at 0.12 to 0.75 mg/ml measured every 24 hr intervals over 192 hr
Clonostachys rosea [48] = assay: Toxicity against Bionectria ochroleuca I60 assessed as inhibition of conidial germination at 0.12 to 0.75 mg/ml measured every 24 hr intervals over 192 hr
Clonostachys rosea [49] = assay: Toxicity against Bionectria ochroleuca I61 assessed as inhibition of conidial germination at 0.12 to 0.75 mg/ml measured every 24 hr intervals over 192 hr
Clonostachys rosea [50] = assay: Toxicity against Bionectria ochroleuca I19 assessed as inhibition of conidial germination at 0.12 to 0.75 mg/ml measured every 24 hr intervals over 192 hr
Clonostachys rosea [51] = assay: Toxicity against Bionectria ochroleuca assessed as inhibition of conidial germination at 0.009 to 0.055 ug/ml
Clonostachys rosea [52] = assay: Toxicity against Bionectria ochroleuca assessed as inhibition of mycelial growth at 0.009 to 0.055 ug/ml

SMILES: CC[C@H](C)[C@H]1O[C@]2(C=C[C@@H]1C)C[C@@H]1C[C@@H](C/C=C(\C)[C@@H](O[C@H]3C[C@H](OC)[C@@H](O[C@H]4C[C@H](OC)[C@@H](O)[C@H](C)O4)[C@H](C)O3)[C@@H](C)/C=C/C=C3\CO[C@@H]4[C@H](O)C(C)=C[C@@H](C(=O)O1)[C@]34O)O2.CO[C@H]1C[C@H](O[C@H]2[C@H](C)O[C@@H](O[C@@H]3/C(C)=C/C[C@@H]4C[C@@H](C[C@]5(C=C[C@H](C)[C@@H](C(C)C)O5)O4)OC(=O)[C@@H]4C=C(C)[C@@H](O)[C@H]5OC/C(=C\C=C\[C@@H]3C)[C@]54O)C[C@@H]2OC)O[C@@H](C)[C@@H]1O [ABAMECTIN]
- growth inhibition (GI) (Clonostachys rosea [1]): 9.79%
- growth inhibition (GI) (Clonostachys rosea [2]): 5.79%
- growth inhibition (GI) (Clonostachys rosea [3]): 0.5%
- growth inhibition (GI) (Clonostachys rosea [4]): 9.64%
- inhibition (INH) (Clonostachys rosea [5]): 1%
- growth inhibition (GI) (Clonostachys rosea [6]): 6.51%

SMILES: O=C1C2CC=CCC2C(=O)N1SC(Cl)(Cl)Cl (centres undefined) [CAPTAN]
- growth inhibition (GI) (Clonostachys rosea [7]): 81.8%
- inhibition (INH) (Clonostachys rosea [8]): 61%
- growth inhibition (GI) (Clonostachys rosea [9]): 75%
- growth inhibition (GI) (Clonostachys rosea [10]): 81.8%
- growth inhibition (GI) (Clonostachys rosea [11]): 82.2%
- growth inhibition (GI) (Clonostachys rosea [12]): 86.2%

SMILES: CC1(C)C(C(=O)OC(C#N)c2cccc(Oc3ccccc3)c2)C1(C)C (centres undefined) [FENPROPATHRIN]
- inhibition (INH) (Clonostachys rosea [13]): 12.7%
- inhibition (INH) (Clonostachys rosea [14]): 10.7%
- inhibition (INH) (Clonostachys rosea [15]): 6%
- growth inhibition (GI) (Clonostachys rosea [16]): 10.77%
- growth inhibition (GI) (Clonostachys rosea [17]): 1%
- inhibition (INH) (Clonostachys rosea [18]): 10.1%
- inhibition (INH) (Clonostachys rosea [19]): 9.9%
- growth inhibition (GI) (Clonostachys rosea [20]): 3.93%
- growth inhibition (GI) (Clonostachys rosea [21]): 7.16%
- growth inhibition (GI) (Clonostachys rosea [22]): 8.18%

SMILES: CCCCOC(=O)[C@@H](C)Oc1ccc(Oc2ccc(C(F)(F)F)cn2)cc1 [FLUAZIFOP-P-BUTYL]
- inhibition (INH) (Clonostachys rosea [23]): 2.2%
- growth inhibition (GI) (Clonostachys rosea [24]): 3.6%

SMILES: O=C(O)CNCP(=O)(O)O [GLYPHOSATE]
- inhibition (INH) (Clonostachys rosea [25]): 2.2%
- growth inhibition (GI) (Clonostachys rosea [26]): 3.6%

SMILES: CC(C)NC(=O)N1CC(=O)N(c2cc(Cl)cc(Cl)c2)C1=O [IPRODIONE]
- growth inhibition (GI) (Clonostachys rosea [27]): 79%
- inhibition (INH) (Clonostachys rosea [28]): 55%

SMILES: CCOC(=O)CC(SP(=S)(OC)OC)C(=O)OCC (centres undefined) [MALATHION]
- growth inhibition (GI) (Clonostachys rosea [29]): 36.87%
- inhibition (INH) (Clonostachys rosea [30]): 12.7%
- inhibition (INH) (Clonostachys rosea [31]): 14.9%
- growth inhibition (GI) (Clonostachys rosea [32]): 22%
- growth inhibition (GI) (Clonostachys rosea [33]): 29.32%
- inhibition (INH) (Clonostachys rosea [34]): 10%
- growth inhibition (GI) (Clonostachys rosea [35]): 32.67%
- growth inhibition (GI) (Clonostachys rosea [36]): 34.59%

SMILES: CC12CC1(C)C(=O)N(c1cc(Cl)cc(Cl)c1)C2=O (centres undefined) [PROCYMIDONE]
- inhibition (INH) (Clonostachys rosea [37]): 59%
- growth inhibition (GI) (Clonostachys rosea [38]): 66%

SMILES: CCc1cccc(C)c1N(C(=O)CCl)[C@@H](C)COC [S-METOLACHLOR]
- growth inhibition (GI) (Clonostachys rosea [39]): 3.6%
- inhibition (INH) (Clonostachys rosea [40]): 2.2%

SMILES: CN1COCN(Cc2cnc(Cl)s2)/C1=N\[N+](=O)[O-] [THIAMETHOXAM]
- growth inhibition (GI) (Clonostachys rosea [41]): 0.51%
- growth inhibition (GI) (Clonostachys rosea [42]): 0.36%
- growth inhibition (GI) (Clonostachys rosea [43]): 0.1%
- growth inhibition (GI) (Clonostachys rosea [44]): 2.65%
- growth inhibition (GI) (Clonostachys rosea [45]): 1.82%
- inhibition (INH) (Clonostachys rosea [46]): 1%

SMILES: COC(=O)NC(=S)Nc1ccccc1NC(=S)NC(=O)OC [THIOPHANATE METHYL]
- inhibition (INH) (Clonostachys rosea [37]): 31%
- inhibition (INH) (Clonostachys rosea [47]): 69.3%
- inhibition (INH) (Clonostachys rosea [48]): 37.4%
- growth inhibition (GI) (Clonostachys rosea [38]): 90%
- inhibition (INH) (Clonostachys rosea [49]): 39.4%
- inhibition (INH) (Clonostachys rosea [50]): 40.8%

SMILES: CCCN(CCC)c1c([N+](=O)[O-])cc(C(F)(F)F)cc1[N+](=O)[O-] [TRIFLURALIN]
- inhibition (INH) (Clonostachys rosea [51]): 2.2%
- growth inhibition (GI) (Clonostachys rosea [52]): 3.6%
